A short description of data set [1]: pharmacokinetics of anagrelide and its metabolite in patients. It is filed as in vivo, human. As to conditions: typical exposures, greater than anagrelide.
Data set [2] relates to human megakaryocytopoiesis. As to conditions: cited from earlier work.
Data set [3] has as its system human phosphodiesterase III (PDE III). Briefly: PDE III inhibition. The data set is classed as biochemical. As to conditions: more potent than anagrelide.
The conditions of data set [4]: human, in vivo; cited from earlier work.
Data set [5] has as its system erythroid or myelomonocytic differentiation. The conditions noted are these: stimulated by erythropoietin or granulocyte-macrophage colony-stimulating factor; cited from earlier work.
Data set [6] deals with human phosphodiesterase III (PDE III). As to conditions: cited from earlier work.

Here are results for three compounds from patent US20110065714A1, “SUBSTITUTED QUINAZOLINES” (Shire LLC, priority 2008, published 2011).

On to `O=C1NC2=Nc3ccc(Cl)c(Cl)c3CN2C1O` (stereo not shown) [3-hydroxyanagrelide], for which the “exposure in vivo relative to parent drug” value in data set [1] was 2-3 fold. In data set [2] (compared with anagrelide), the “potency in inhibition of megakaryocytopoiesis relative to parent drug” value was “no more potent than the parent drug”. Besides, the “potency as PDE III inhibitor relative to anagrelide” value in data set [3] is “over 40 fold”. Also, in data set [4], the typical half-life was 2.5 h.
Regarding `O=C1CN2Cc3c(ccc(Cl)c3Cl)N=C2N1` [Anagrelide, 6,7-dichloro-1,5-dihydroimidazo[2,1-b]-quinazolin-2(3H)-one], the IC50 in data set [2] (in vitro, TPO-induced, read-out: estimated IC50 for inhibition of TPO-induced megakaryocytopoiesis) is roughly 26 nM; in data set [6], roughly 29 nM. Also, the “effect on erythroid or myelomonocytic differentiation” value in data set [5] is on record as “does not affect”. Also, in data set [4], the first pass effect is greater than 50%. The typical half-life in data set [4] is 1.5 h.
For `Cc1[nH]c(=O)c(C#N)cc1-c1ccncc1` [milrinone], the IC50 in data set [6] is 170 to 350 nM.

Broadly, the IC50 is the point on the concentration scale where inhibition reaches its midpoint.
